This is an account of results in PMC10214751, “Poaceae‐specific β‐1,3;1,4‐D‐glucans link jasmonate signalling to OsLecRK1‐mediated defence response during rice‐brown planthopper interactions” (Plant Biotechnology Journal, 2023).

Structures are written as SMILES.

This test has as its target T1, OsLecRK1 (MBP-OsLecRK1-His) (Oryza sativa, UniProt Q7FAZ3).
T1 construct: gene LECRK1; recombinant MBP-OsLecRK1-His fusion, purified; MBP and His tags kept; RED-NHS labelled
T1 sequence (Q7FAZ3 20-813 limits assumed): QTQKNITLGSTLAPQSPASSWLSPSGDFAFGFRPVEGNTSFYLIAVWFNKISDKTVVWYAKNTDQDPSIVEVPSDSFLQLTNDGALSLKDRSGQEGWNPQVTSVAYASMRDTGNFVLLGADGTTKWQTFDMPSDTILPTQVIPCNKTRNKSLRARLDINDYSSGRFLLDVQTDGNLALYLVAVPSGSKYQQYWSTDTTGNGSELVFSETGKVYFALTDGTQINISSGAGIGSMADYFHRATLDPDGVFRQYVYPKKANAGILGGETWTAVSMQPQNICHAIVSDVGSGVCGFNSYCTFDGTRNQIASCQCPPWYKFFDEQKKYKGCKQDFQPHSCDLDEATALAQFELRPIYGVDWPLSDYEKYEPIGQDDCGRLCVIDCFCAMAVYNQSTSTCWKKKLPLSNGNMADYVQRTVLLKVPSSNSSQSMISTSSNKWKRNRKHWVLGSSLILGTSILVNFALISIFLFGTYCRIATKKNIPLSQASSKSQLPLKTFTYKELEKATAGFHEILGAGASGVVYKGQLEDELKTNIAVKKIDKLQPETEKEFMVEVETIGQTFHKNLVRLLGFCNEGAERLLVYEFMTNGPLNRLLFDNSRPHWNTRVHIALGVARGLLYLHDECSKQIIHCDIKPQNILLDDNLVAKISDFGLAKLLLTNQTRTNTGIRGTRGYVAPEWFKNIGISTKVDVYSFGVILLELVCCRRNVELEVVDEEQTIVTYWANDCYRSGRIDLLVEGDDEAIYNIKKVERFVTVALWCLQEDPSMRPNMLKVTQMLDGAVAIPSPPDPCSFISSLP
In words: microscale thermophoresis, RED-NHS labelled protein. The following applies: labelled protein in NHS buffer pH 8.2 (130 mM NaHCO3, 50 mM NaCl); ligand 1.5 nM to 50 μM. Format: binding. From the text:
microscale thermophoresis, RED-NHS labelled protein on OsLecRK1 (MBP-OsLecRK1-His) | MBP‐OsLecRK1‐His recombinant protein bound BGTRIA, BGTRIB, BGTETB, and BGTETC with high affinities

What is called Kd is the free concentration of one partner at which half of the binding sites on the other are occupied at equilibrium, for simple one-to-one binding. A high value points to a looser complex. `OC[C@H]1O[C@@H](O[C@@H]2[C@@H](O)[C@H](O[C@H]3[C@H](O)[C@@H](O)C(O)O[C@@H]3CO)O[C@H](CO)[C@H]2O)[C@H](O)[C@@H](O)[C@@H]1O` (stereo partly drawn) [BGTRIA, 3^2‐β‐D‐glucosyl‐cellobiose] displayed a Kd of 0.34 µM.

As to `OC[C@H]1O[C@@H](O[C@H]2[C@H](O)[C@@H](O)[C@H](O[C@H]3[C@H](O)[C@@H](CO)OC(O)[C@@H]3O)O[C@@H]2CO)[C@H](O)[C@@H](O)[C@@H]1O` (stereo partly drawn) [BGTRIB, 3^1‐β‐D‐cellobiosyl‐glucose], the Kd is 0.6 µM.
